Results published in patent US20220233556A1, “COMPOSITIONS AND METHODS FOR TREATING OPHTHALMIC CONDITIONS” (Medicon Pharmaceuticals, Inc., priority 2017, published 2022).

How the values were obtained:
corneal sensitivity = experiment: Corneal touch threshold (CTT) assay, Cochet-Bonnet aesthesiometer; type: in vivo, rabbits
Description: FIGS. 10A and 10B illustrate the ocular analgesic effect of PS. FIG. 10A: One drop of PS 0.5%, vehicle, or lidocaine was applied to one eye of rabbits (n=4/group) and the corneal touch threshold (CTT) was determined using an Eshesiometer. Vehicle had no effect on CTT (not shown; overlaps with the 0 value horizontal line). Values=mean±SEM. FIG. 10B: PS 0.5% in formulations differing in pH as indicated produced different analgesic responses in rabbits. The areas under each curve (AUC), indicted in the figure, that quantify these responses vary by as much as >5 fold. Values are the average of 2; all were within 11% of each other.
FIGS. 11A and 11B illustrates the effect of various concentrations of PS on corneal sensitivity determined by the corneal touch threshold (CTT) assay. The CTT score is expressed as length of filament. Measurements were performed at the indicated time points after a single application of PS as an eye drop. Rabbits with normal or dry eyes were studied (n=6 eyes per group). Dry eyes were induced by Concanavalin A injection as described in the text. The % PS content in each study is shown. The numbers in parentheses indicate the corresponding value of the area under the curve. Values=mean±SEM.
FIGS. 12A and 12B illustrate the effect of various drugs on corneal sensitivity determined by the corneal touch threshold (CTT) assay described herein. Each drug was used in its commercially available form; one eye drop of each was applied. The numbers in parentheses indicate the corresponding value of the area under the curve. Values=mean±SEM.
The analgesic effect of PS was examined on the surface of the eye by determining the corneal touch threshold (CTT) using the Luneau Cochet-Bonnet Aesthesiometer (Western Ophthalmics, Lynwood, Wash.) an adjustable nylon monofilament with a defined diameter, which is applied in different lengths to the center of the cornea.
In this embodiment, the composition of the PS preparation was: 0.5% PS, 18% (2-hydroxypropyl)-β-cyclodextrin (HP-β-CD), 1-4% Tween 80. Preparation Method: HP-β-CD was dissolved in purified water maintained in a 50° C. water bath. PS was added into this solution and kept at 50° C. overnight with stirring at 500 rpm until PS was fully dissolved. Tween 80 was added into the PS HP-β-CD solution, which was then centrifuged at 3000 rpm for 10 min to remove undissolved particles. The supernatant was collected and pH was adjusted to the desired value using a NaOH solution. The analgesic effect of PS was examined as above.
The effect of PS and other compounds on corneal sensitivity was determined in rabbits with normal or dry eyes using the CTT assay as above; DED was induced by Concanavalin A as previously described. The CTT score, expressed as filament length in mm, of normal eyes was 5.56±0.11 mm (mean±SEM for this and subsequent values) and in dry eyes 4.17±0.12 mm; the difference between the two is statistically significant (p<0.0001).

PGE2 = PGE2 levels in tears and cornea of rabbits (ELISA); type: in vivo
Description: FIGS. 9A and 9B illustrate that PS preserves the levels of PGE2 in tears and the cornea. In FIG. 9A, PGE2 levels were determined by ELISA in tears collected on day 7 from naïve rabbits and rabbits with Con A-induced DED treated for 1 week with vehicle or PS. In FIG. 9B, PGE2 levels were further examined. Upper panel: PGE2 levels in the tears of naïve rabbits and rabbits with Con A-induced DED treated for 1 h with PS or ketorolac as in Methods. Lower panel: PGE2 levels in the corneal tissue of naïve rabbits and rabbits with Con A-induced DED treated for 1 week with vehicle or PS or ketorolac or diclofenac. n=8 eyes/group. Values=mean±SEM.
It was determined that the levels of PGE2 in rabbit tears in three groups of rabbits, naïve and those with Con A-induced DED that were treated for 1 week either with PS or vehicle.
In an acute experiment, administered once topically to the eyes of four groups of rabbits with Con A-induced DED was one of the following: vehicle, PS, ketorolac or diclofenac; the latter two are NSAIDs used for the treatment of ocular inflammation and pain. It was determined that the levels of PGE2 in the cornea of these rabbits obtained 1 h later as well as in the corneas of naïve rabbits.

NF-κB = NF-κB activation by EMSA in TNF-α-stimulated human conjunctival cells; type: cell-based; settings: PS 5 h, then TNF-α 10 ng/ml, EMSA 1 h later
Description: (§1) FIGS. 6A and 6B illustrate that PS suppresses the activation of NF-κB and MAPKs. In FIG. 6A, NF-κB activation was determined by EMSA in cultured human conjunctival cells stimulated with TNFα (top) and in the ILG of rabbits with Con A-induced DED and treated for one week with either vehicle or PS (bottom). In FIG. 6B, immunoblots detecting the activation of MAPKs by phosphorylation in cultured human conjunctival cells treated with PS at the indicated concentrations for 3.5 h. Loading control: β-actin.
The Mechanism of Action of PS in Dry Eye. Tissue culture, animal and human studies have established inflammation as the core mechanism of DED. To determine the mechanism of action of PS in DED the response to PS of several factors known to play an important role in the inflammation associated with DED was explored. They include NF-κB; the cytokines TGF-β, IL-1β, IL-6 and IL-8; the collagenases MMP-1 and MMP-9; and PGE2. In these studies human conjunctival epithelial cells were used, the Wong-Kilbourne derivative of Chang conjunctival cells (clone 1 to 5c-4l American Type Culture Collection (Manassas, Va.) certified cell line, 20.2).
Human conjunctival cells were treated with various concentrations of PS. Five hours later, TNF-α was added to the culture medium to a final concentration of 10 ng/ml and the status of NF-κB activation was determined by EMSA 1 h later. […]

JNK and Erk1/2 = experiment: MAPK activation by phosphorylation (immunoblots) in human conjunctival cells; type: cell-based; settings: PS 3.5 h
Description: as §1
The conjunctiva cells used express only the JNK and Erk1/2 pathways.

**Q.** What does the source list for `CCOP(=O)(OCC)OCCCCOC(=O)CC1=C(C)/C(=C/c2ccc([S+](C)[O-])cc2)c2ccc(F)cc21` (stereo not shown) [PS, phosphosulindac]?
**A.** effect on corneal sensitivity (CTT), dry eyes (corneal sensitivity; 0.05% PS): ineffective; effect on corneal sensitivity (CTT), dry eyes (corneal sensitivity; 0.2% and 1.6% PS): essentially equipotent; effect on corneal sensitivity (CTT), dry eyes (corneal sensitivity; Con A-induced dry eyes, single eye drop): restored the already suppressed ocular sensitivity; variation of AUC of analgesic response between formulations differing in pH (corneal sensitivity; PS 0.5%, HP-β-CD formulation): > 5 fold; duration of response of corneal sensation (corneal sensitivity; dry eye): less than 100 min; onset of response of corneal sensation (corneal sensitivity; dry eye): ≤ 5 min; time at which values returned to baseline (corneal sensitivity; dry eyes): 100 min; analgesic effect (CTT) (corneal sensitivity; naïve rabbits, single eye drop, PS 0.5%): essentially instantaneous and significant analgesia; effect on corneal sensitivity (CTT), normal eyes (corneal sensitivity; single eye drop, various PS concentrations): dose-dependent analgesic effect; PGE2 levels in tears (PGE2; rabbits with Con A-induced DED treated 1 week): slightly lower than (but not significantly different from) those of naïve rabbits; PGE2 levels in the cornea (PGE2; rabbits with Con A-induced DED, administered once topically, 1 h later): no different than those of vehicle-treated and naïve rabbits; activation of NF-κB (NF-κB): significantly suppressed; activation by phosphorylation of JNK and Erk1/2 (JNK and Erk1/2): profoundly suppressed
